In paper PMC4315936 (Redox Biology, 2015) one finds IC50 data, which are given here for one compound.

This experiment addresses mitochondrial complex I (NADH:ubiquinone oxidoreductase, NQR) (Mus musculus, UniProt P03888+Q91WD5+Q9DC70). Briefly: NQR activity. The format is biochemical.

Regarding `O=C1Nc2ccc(Cl)cc2[C@@](C#CC2CC2)(C(F)(F)F)O1` [EFV, efavirenz], the concentration for half-maximal inhibition (IC50) is less than 10 µM.
